Measurements taken from ChEMBL document CHEMBL5150071, “BAY-7081: A Potent, Selective, and Orally Bioavailable Cyanopyridone-Based PDE9A Inhibitor” (J Med Chem, 2022).
≈ marks a conversion by molar mass, not a printed value.

Tests used:
[1] = molecular target: High affinity cGMP-specific 3',5'-cyclic phosphodiesterase 9A (Homo sapiens, UniProt O76083); assay: Inhibition of full length human PDE9A expressed in Sf9 insect cells using [3H]-cGMP as substrate incubated for 60 mins by microbeta scintillation counter analysis
Chain of High affinity cGMP-specific 3',5'-cyclic phosphodiesterase 9A (O76083 whole entry): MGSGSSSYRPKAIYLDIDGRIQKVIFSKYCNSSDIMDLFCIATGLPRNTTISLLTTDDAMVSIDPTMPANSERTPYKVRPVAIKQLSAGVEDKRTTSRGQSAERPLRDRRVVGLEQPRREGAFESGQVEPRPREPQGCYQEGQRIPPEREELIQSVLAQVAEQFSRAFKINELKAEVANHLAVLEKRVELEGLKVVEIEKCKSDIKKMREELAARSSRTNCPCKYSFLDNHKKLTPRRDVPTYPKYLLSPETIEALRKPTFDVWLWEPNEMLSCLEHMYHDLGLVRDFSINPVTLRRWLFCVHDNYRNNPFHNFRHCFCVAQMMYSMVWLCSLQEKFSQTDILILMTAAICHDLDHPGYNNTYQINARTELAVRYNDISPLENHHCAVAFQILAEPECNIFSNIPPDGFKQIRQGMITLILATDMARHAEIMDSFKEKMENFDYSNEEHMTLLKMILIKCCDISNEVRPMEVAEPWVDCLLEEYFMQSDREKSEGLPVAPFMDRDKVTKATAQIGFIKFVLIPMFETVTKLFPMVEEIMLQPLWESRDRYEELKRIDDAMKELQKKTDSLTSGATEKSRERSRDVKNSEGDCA

Homo sapiens [2] = organism: Homo sapiens; assay: Selectivity index, ratio of IC50 for full length human PDE2A to IC50 for full length human PDE9A
Homo sapiens [3] = organism: Homo sapiens; assay: Selectivity index, ratio of IC50 for full length human PDE3B to IC50 for full length human PDE9A
Homo sapiens [4] = organism: Homo sapiens; assay: Selectivity index, ratio of IC50 for human platelet PDE5A to IC50 for full length human PDE9A
Homo sapiens [5] = organism: Homo sapiens; assay: Selectivity index, ratio of IC50 for full length human PDE7B to IC50 for full length human PDE9A
Homo sapiens [6] = organism: Homo sapiens; assay: Selectivity index, ratio of IC50 for full length human PDE8A to IC50 for full length human PDE9A
Homo sapiens [7] = organism: Homo sapiens; assay: Selectivity index, ratio of IC50 for full length human PDE10A to IC50 for full length human PDE9A
Homo sapiens [8] = organism: Homo sapiens; assay: Selectivity index, ratio of IC50 for full length human PDE11A to IC50 for full length human PDE9A
[9] = Blood clearance in po or iv dosed Wistar rat measured over 24 hrs by LC-MS/MS analysis; format: ADME, organism-based; conditions: in vivo
Homo sapiens [10] = organism: Homo sapiens; assay: Selectivity index, ratio of IC50 for full length human PDE4B to IC50 for full length human PDE9A
[11] = Drug metabolism in rat hepatocytes assessed as glucuronidation of cyclic lactam at 10 uM incubated for 4 hrs by LC-MS/MS analysis; format: ADME, cell-based, Hepatocyte
[12] = Drug metabolism in cryopreserved human hepatocytes assessed as glucuronidation of cyclic lactam at 10 uM incubated for 4 hrs by LC-MS/MS analysis; format: ADME, cell-based, Hepatocyte
[13] = Selectivity index, ratio of IC50 for bovine PDE6 to IC50 for full length human PDE11A
[14] = Selectivity index, ratio of IC50 for bovine brain PDE1 to IC50 for full length human PDE9A
[15] = Solubility of compound in PBS at pH 6.5 at 50 mg/ml incubated for 24 hrs by LC/MS/MS or HPLC analysis; format: physicochemical; conditions: buffer, pH 6.5, 24 h

SMILES	IC50 [1] [nM]	Ratio IC50 (Homo sapiens [2])	Ratio IC50 (Homo sapiens [3])	Ratio IC50 (Homo sapiens [4])	Ratio IC50 (Homo sapiens [5])	Ratio IC50 (Homo sapiens [6])	Ratio IC50 (Homo sapiens [7])	Ratio IC50 (Homo sapiens [8])	other results
CCc1ccnc2c(N3CCC(C)(C)CC3)c(C#N)c(=O)[nH]c12	610	–	–	–	–	–	–	–	–
Cc1ccc(-c2c(C#N)c(=O)[nH]c3cccnc23)cc1	725	–	–	–	–	–	–	–	–
CCCC1CNCc2c1[nH]c(=O)c(C#N)c2N1CCC(C)(C)CC1.Cl (configuration not stated)	–	> 100	> 100	> 100	> 100	> 100	> 100	> 100	CL [9]: 46.7 mL/min/kg
CC1(C)CCN(c2c(C#N)c(=O)[nH]c3cccnc23)CC1	330	–	–	–	–	–	–	–	–
CCCC1CNCc2c1[nH]c(=O)c(C#N)c2-c1ccc(C)cc1.Cl (configuration not stated)	–	> 100	> 100	> 100	> 100	> 100	> 100	> 100	Ratio IC50 (Homo sapiens [10]): > 100; CL [9]: 60 mL/min/kg; Drug metabolism [11]: Metabolite_Detected; Drug metabolism [12]: Metabolite_Detected
CCCC1CCCc2c1[nH]c(=O)c(C#N)c2-c1ccc(C)cc1 (configuration not stated)	–	69	69	69	69	69	69	69	Ratio IC50 (Homo sapiens [10]): 69
Cc1ccc(-c2c3c([nH]c(=O)c2C#N)CCCC3)cc1	–	–	–	–	–	–	–	–	Ratio IC50 [13]: 17
CCCC1CNCc2c1[nH]c(=O)c(C#N)c2N1CCC2(CC2)C(F)(F)C1 (racemic)	100	–	–	–	–	–	–	–	Ratio IC50 [14]: 9
Cc1ccc(-c2c3c([nH]c(=O)c2C#N)C(C)CCC3)cc1 (racemic)	310	–	–	–	–	–	–	–	Ratio IC50 [14]: 3; solubility [15]: 9 µg/mL (≈ 32.3 µM)
CCCC1CCCc2c(-c3ccc(C)cc3)nc(=O)[nH]c21 (racemic)	13400	–	–	–	–	–	–	–	–
